Test results as given in patent US6737383B1, “Herbicidal oxadiazolidines” (priority 1999, dated 2004).

What was measured:
giant foxtail = assay: Test B pre/postemergence giant foxtail; type: in vivo, Setaria faberii
Method in brief: (§1)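 Test chemicals in a non-phytotoxic solvent mixture with surfactant were sprayed preemergence onto planted seeds and postemergence onto plants 2 to 18 cm tall (1- to 4-leaf stage). After twelve to sixteen days in a greenhouse, injury was visually rated against untreated controls from 0 (no effect) to 10 (complete control).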

soybean = assay: Test B pre/postemergence soybean; type: in vivo, Glycine max
Method in brief: as §1

crabgrass = assay: Test B pre/postemergence crabgrass; type: in vivo, Digitaria sanguinalis
Method in brief: as §1

sugar beet = assay: Test B pre/postemergence sugar beet; type: in vivo, Beta vulgaris
Method in brief: as §1

[1] = Preemergence, Rate 62 g/ha, scale of 0 to 10 where 0 is no effect and 10 is complete control
[2] = Preemergence, Rate 125 g/ha, 0 is no effect, 10 is complete control
[3] = Preemergence, Rate 250 g/ha, scale 0 to 10, 0 is no effect, 10 is complete control
[4] = Preemergence, Rate 500 g/ha, scale of 0 to 10 where 0 is no effect and 10 is complete control
[5] = Rate 62 g/ha, Postemergence, scale of 0 to 10 where 0 is no effect and 10 is complete control
[6] = Rate 125 g/ha, Postemergence, scale 0 to 10
[7] = Rate 500 g/ha, Postemergence, scale 0 to 10
[8] = Preemergence, Rate 250 g/ha, scale of 0 to 10 where 0 is no effect and 10 is complete control
[9] = Rate 125 g/ha, Preemergence, scale of 0 to 10 where 0 is no effect and 10 is complete control
[10] = Rate 500 g/ha, Postemergence, scale 0 to 10, 0 no effect, 10 complete control
[11] = Postemergence, Rate 1000 g/ha, scale 0 to 10 (0 no effect, 10 complete control)
[12] = Rate 1000 g/ha, Preemergence, scale 0 to 10 (0 no effect, 10 complete control)

Compound	Giant foxtail plant response rating (giant foxtail; [1])	Plant response rating, Giant foxtail (giant foxtail; [4])	Giant foxtail plant response rating (giant foxtail; [5])	Giant foxtail plant response rating (giant foxtail; [6])	Plant response rating (0 to 10; 0 is no effect, 10 is complete control), Giant foxtail (giant foxtail; Rate 250 g/ha, Postemergence)	Soybean plant response rating (soybean; [1])	Plant response rating, Soybean (soybean; [4])	Soybean plant response rating (soybean; [5])	Soybean plant response rating (soybean; [6])	Plant response rating (0 to 10; 0 is no effect, 10 is complete control), Soybean (soybean; Rate 250 g/ha, Postemergence)	Crabgrass plant response rating (crabgrass; [1])	Plant response rating, Crabgrass (crabgrass; [4])	Crabgrass plant response rating (crabgrass; [5])	Crabgrass plant response rating (crabgrass; [6])	Plant response rating (0 to 10; 0 is no effect, 10 is complete control), Crabgrass (crabgrass; Rate 250 g/ha, Postemergence)	Sugarbeets plant response rating (sugar beet; [1])	Plant response rating, Sugarbeets (sugar beet; [4])	Sugarbeets plant response rating (sugar beet; [5])	Sugarbeets plant response rating (sugar beet; [6])	Plant response rating (0 to 10; 0 is no effect, 10 is complete control), Sugarbeets (sugar beet; Rate 250 g/ha, Postemergence)	also measured
Cc1nc(C)c(-n2c(=O)on(C(=O)N(c3ccc(F)cc3)C(C)C)c2=O)s1 [Compound 198]	0	3	0	0	0	0	0	0	0	0	0	0	0	0	0	0	0	0	0	0	Giant foxtail plant response rating (0 to 10 scale) (giant foxtail; [2]): 0; Giant foxtail plant response rating (giant foxtail; [3]): 0; Giant foxtail plant response rating (giant foxtail; [7]): 0; Soybean plant response rating (0 to 10 scale) (soybean; [2]): 0; Soybean plant response rating (soybean; [3]): 0; Soybean plant response rating (soybean; [7]): 1; Crabgrass plant response rating (0 to 10 scale) (crabgrass; [2]): 0; Crabgrass plant response rating (crabgrass; [3]): 0; Crabgrass plant response rating (crabgrass; [7]): 0; Sugarbeets plant response rating (0 to 10 scale) (sugar beet; [2]): 0; Sugarbeets plant response rating (sugar beet; [3]): 0; Sugarbeets plant response rating (sugar beet; [7]): 0
COc1cc(C)cc(C)c1-n1c(=O)on(C(=O)N(c2ccc(F)cc2)C(C)C)c1=O [Compound 222]	0	9	0	0	0	0	0	2	3	3	0	9	0	0	0	0	0	0	0	0	Giant foxtail plant response rating (giant foxtail; [8]): 7; Giant foxtail plant response rating (giant foxtail; [9]): 5; Giant foxtail plant response rating (giant foxtail; [10]): 1; Soybean plant response rating (soybean; [8]): 0; Soybean plant response rating (soybean; [9]): 0; Soybean plant response rating (soybean; [10]): 2; Crabgrass plant response rating (crabgrass; [8]): 8; Crabgrass plant response rating (crabgrass; [9]): 6; Crabgrass plant response rating (crabgrass; [10]): 2; Sugarbeets plant response rating (sugar beet; [8]): 0; Sugarbeets plant response rating (sugar beet; [9]): 0; Sugarbeets plant response rating (sugar beet; [10]): 0
Cc1ccccc1-n1c(=O)on(C(=O)N(c2ccc(C(C)C)cc2)C(C)C)c1=O [Compound 231]	0	8	0	0	0	0	0	0	1	1	0	7	0	0	0	0	0	0	0	0	Giant foxtail plant response rating (giant foxtail; [8]): 3; Giant foxtail plant response rating (giant foxtail; [9]): 0; Giant foxtail plant response rating (giant foxtail; [10]): 0; Soybean plant response rating (soybean; [8]): 0; Soybean plant response rating (soybean; [9]): 0; Soybean plant response rating (soybean; [10]): 1; Crabgrass plant response rating (crabgrass; [8]): 0; Crabgrass plant response rating (crabgrass; [9]): 0; Crabgrass plant response rating (crabgrass; [10]): 2; Sugarbeets plant response rating (sugar beet; [8]): 0; Sugarbeets plant response rating (sugar beet; [9]): 0; Sugarbeets plant response rating (sugar beet; [10]): 0
CCOC(=O)C(C)N(C(=O)n1oc(=O)n(-c2ccccc2C)c1=O)c1ccc(F)cc1 (centres unmarked) [Compound 247]	–	3	–	–	0	–	0	–	–	–	–	2	–	–	0	–	0	–	–	–	Giant foxtail plant response rating (giant foxtail; [11]): 0; Giant foxtail plant response rating (giant foxtail; [8]): 2; Giant foxtail plant response rating (giant foxtail; [9]): 0; Giant foxtail plant response rating (giant foxtail; [10]): 0; Plant response rating, Giant foxtail (giant foxtail; [12]): 7; Soybean plant response rating (soybean; [11]): 1; Soybean plant response rating (soybean; [8]): 0; Soybean plant response rating (soybean; [9]): 0; Soybean plant response rating (soybean; [10]): 0; Plant response rating, Soybean (soybean; [12]): 0; Crabgrass plant response rating (crabgrass; [11]): 0; Crabgrass plant response rating (crabgrass; [8]): 2; Crabgrass plant response rating (crabgrass; [9]): 0; Crabgrass plant response rating (crabgrass; [10]): 0; Plant response rating, Crabgrass (crabgrass; [12]): 3; Sugarbeets plant response rating (sugar beet; [11]): 0; Sugarbeets plant response rating (sugar beet; [8]): 0; Sugarbeets plant response rating (sugar beet; [9]): 0; Sugarbeets plant response rating (sugar beet; [10]): 0; Plant response rating, Sugarbeets (sugar beet; [12]): 0
